Here are results for nine molecules from patent publication US20180360972A1, “THERAPEUTIC COMPOUNDS” (REGENTS OF THE UNIVERSITY OF MINNESOTA, priority 2017, published 2018).

For series [1], the target named is mMC4R-NanoLuc and mMC4R-HaloTag homodimer (Mus musculus, UniProt P56450). The series can be described thus: NanoBRET ligand-dependent modulation of BRET signal. To be noted: for reduction in BRET signal compared to basal signal: ligand at 10 μM; for change in BRET signal (in words): 10^−5, 10^−7 and 10^−9 M vs assay buffer. On the technique in general: BRET reads energy transfer from a luciferase to a nearby fluorophore.
Experimental: On the first day, cells were plated into 6 well plates in the morning. In the afternoon of the same day, cells were transiently transfected with mMC4R-NanoLuc® fusion protein and the MC4R-HaloTag® fusion protein by adding FuGene6 Transfection (8 μL/well, Promega), DNA (2 μg/well) in OptiMem medium (Invitrogen) at a total volume of 100 μL/well. […] Cells were incubated with transfection reagent overnight at 5% CO2 at 37° C.
This provides the background signal and was subtracted from the final experimental signal. Plates were then developed 48 to 60 hours after transfection. Two hours before the plates were developed, 10 μL of a 10× aliquot of the ligand diluted in assay buffer was added to each well to yield the final in well concentration (10^−5, 10^−7, or 10^−9M) of each compound. For the assay buffer control, 10 μL of assay buffer was added instead of compound. […] The standard error of the mean (SEM) was derived from at least three independent experiments.

Series [2] has as its target T1, hMC4R (Homo sapiens, UniProt P32245).
T1 construct: Flag; expressed in transfected cells
As to the kind of experiment: cAMP Signaling | EC50 (nM). Here is the method: Table printed on a drawing sheet, Figure 20
The cAMP signaling potency was determined by AlphaScreen™ assays. […] The reported errors are the standard error of the mean (SEM) determined from at least three independent experiments. Changes less than 3-fold were considered to be within the inherent experimental assay error.
Target sequence in this assay (P32245 whole entry, looked up): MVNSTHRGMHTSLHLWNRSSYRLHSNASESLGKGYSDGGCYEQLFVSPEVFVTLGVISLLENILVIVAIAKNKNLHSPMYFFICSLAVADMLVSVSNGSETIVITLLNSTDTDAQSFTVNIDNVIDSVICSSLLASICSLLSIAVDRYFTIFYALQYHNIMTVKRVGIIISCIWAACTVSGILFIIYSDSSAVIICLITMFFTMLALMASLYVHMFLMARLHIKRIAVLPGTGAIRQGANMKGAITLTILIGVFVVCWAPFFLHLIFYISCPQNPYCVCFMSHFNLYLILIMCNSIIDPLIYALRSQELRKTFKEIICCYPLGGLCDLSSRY

Series [3] concerns the target T1, hMC4R. The series can be described thus: β-Arrestin Recruitment | EC50 (nM).
Target sequence in this assay (P32245 whole entry, looked up): as above
The target of series [4] is T1, hMC4R. As to the kind of experiment: AlphaScreen cAMP functional bioassay, hMC4R. The class given is cell-based. The following applies: HEK293 cells stably expressing hMC4R. The procedure: Upon agonist stimulation, melanocortin receptors are known to signal through a Gαs-protein mediated signaling pathway that results in intracellular cAMP accumulation.
Stable populations were selected for using G418 selection (0.7-1.0 mg/mL) and used in bioassays unless indicated otherwise. In vitro experimental ligands were dissolved to a 10^−2 M stock in DMSO and stored at −20° C. Subsequent dilutions were performed in each assay's specific buffer to achieve the final concentration in the well. The ligands were assayed as TFA salts.
AlphaScreen cAMP Functional Bioassay
The AlphaScreen® assay was performed as described by manufacturer.
Cells were removed from plates using Gibco® Versene solution and pelleted by centrifugation (Sorvall Super T21 high speed centrifuge, swinging bucket rotor) at 800 rpm for five minutes. […] A 10 μL aliquot of cell suspension was counted manually using a hemocytometer after addition of Trypan blue dye (BioRad). Cells were again pelleted by centrifugation, and DPBS was gently aspirated. The pelleted cells were then resuspended in a solution of freshly made stimulation buffer (Hank's Balanced Salt Solution [HBSS 10× [−] sodium bicarbonate] and [−] phenol red, Gibco®], 0.5 mM isobutylmethylxanthine [IBMX], 5 mM HEPES buffer solution [1M, Gibco®], 0.1% bovine serum albumin [BSA] in Milli-Q water, pH=7.4) and anti-cAMP acceptor beads (1.0 unit per well, AlphaScreen®). […] The cells were then stimulated with ligand diluted in stimulation buffer to achieve their final concentrations in the well ranging from 10^−13 to 10^−4 M. The stimulated plates were incubated in a dark laboratory drawer at room temperature for two hours.
Meanwhile, a biotinylated cAMP/streptavidin donor bead working solution was made by adding biotinylated cAMP (1 Unit/well, AlphaScreen®) and streptavidin donor beads (1 Unit/well, AlphaScreen®) to a lysis buffer (10% Tween-20, 5 mM HEPES buffer solution [1M, Gibco®], 0.1% bovine serum albumin [BSA] in Milli-Q water, pH=7.4). After the two hour stimulation, the biotinylated cAMP/Streptavidin donor bead working solution was added to each well under green light and mixed well by pipetting up and down. The cells were incubated for another two hours at room temperature in a dark drawer at room temperature. The plate was then read on an EnSpire™ Alpha plate reader using a pre-normalized assay protocol set by the manufacturer. Assays were performed with duplicate data points on each plate and repeated in at least three independent experiments.
Dose response curves were analyzed using the PRISM program (v4.0; GraphPad Inc.).
For orientation: In Alpha technology, singlet oxygen from a donor bead excites a nearby acceptor bead.
Target sequence in this assay (P32245 whole entry): as the sequence (P32245 whole entry, looked up) above

The test system of series [5] is wild type mice. The series can be described thus: ICV administration, conventional cages, wild type mice. Type of series: in vivo. The following applies: preliminary conventional cage experiments; fasting paradigm. The procedure:
(§1) All experiments were performed in accordance with the Institutional Animal Care and Use Committee (IACUC) at the University of Minnesota. Female and male littermates with mixed background from C57BL/6J and 129/Sv inbred strains were 8 weeks old at the time of surgeries. Mice were individually housed after surgeries and for the remainder of the experiment. Mice were maintained on a 12 hr light/dark cycle (Lights off was at 11:59 AM) in a temperature controlled room (23-25° C.). In the nocturnal feeding paradigm, mice had free access to normal chow (Harlan Teklad 2018 Diet: 18.6% crude protein, 6.2% crude fat, 3.5% crude fiber, with energy density of 3.1 kcal/g). […] Mice had free access to tap water throughout all the experiments. The cannula placement validation studies and conventional cage studies were performed in standard mouse polycarbonate conventional cages provided by University of Minnesota's Research Animal Resources (RAR). Weekly cage changes were conducted by lab research staff.
(§2) Mice were anesthetize with a mixture of ketamine (100 mg/kg) and xylazine (5 mg/kg) and were positioned in a stereotaxic apparatus (David Kopf Instruments). A 26-gauge cannula (Cat# 81C315GS4SPC; PlasticsOne, Roanoke, Va.) was inserted in the lateral cerebral ventricle at the coordinates 1.0 mm lateral and 0.46 mm posterior to bregma and 2.3 mm ventral to the skull (Franklin, K. B. J. & Paxinos, G. The Mouse Brain in Stereotaxic Coordinates. (Academic Press, 1997)).
(§3) Each mouse was administered hPYY and saline on different days following a crossover design in the nocturnal feeding paradigm. In the nocturnal paradigm, compound is administered 2 hours prior to lights out with free access to food and water throughout the entire experiment. There was at least a 4 day washout period between administration to ensure that normal feeding patterns and body weight returned. Food intake and body weight were manually measured 2, 4, and 6 hours after hPYY or saline administration. A mouse with a validated cannula placement for the TSE cage experiments consumed at least 1.0 g more after hPYY administration compared to saline administration 4 hours post-administration.
(§4) As stated above, conventional cage experiments were performed in standard mouse polycarbonate conventional cages. […] All experiments followed a cross-over paradigm in which the mouse received saline and compound on different days with a washout period in between each treatment. Statistical analysis was performed using SPSS V23 software (IBM) using a multivariate general linear model followed by a Bonferroni's post hoc test. Results are presented as Mean±SEM. Statistically significant was considered p<0.05.

Series [6] relates to male wild type mice. The class given is in vivo. The following applies: nocturnal paradigm; 5.0 or 2.5 nmols CJL-1-124. The procedure: as §1, §2, §3, §4
Series [7] concerns male MC3RKO mice. As to the kind of experiment: ICV administration, TSE metabolic cages, male MC3RKO mice. The class given is in vivo. To be noted: nocturnal paradigm; 2.5 to 5 nmols. The procedure: as §1, §2, §4
In order to more clearly understand the effects of the biased agonism at the MC4R, the effects of administration of CJL-5-58 was explored in MC3R knockout (KO) mice and MC4RKO mice. […] Adverse reactions included two mice dying after the 5 nmol dose. […] The large error in activity may serve as an indication of toxicity. It is currently difficult to decipher whether the adverse reactions observed are due to paradigm effects, genotype difference, or compound toxicity.

The subject of series [8] is male MC4RKO mice. As to the kind of experiment: ICV administration, conventional cages, male MC4RKO mice. The class given is in vivo. The following applies: ICV 2.5 to 5 nmols; conventional cages. Here is the method:
as §1, §2, §4
In male MC4RKO mice, CJL-5-58 was administered at 5 nmols in both a nocturnal paradigm and a fasting-refeeding paradigm in standard conventional cages (FIG. 15). The dose was well handled in the nocturnal paradigm, but minimal effect was observed.

“Also recorded” adds a separate entry of the source. Square brackets hold non-standard residues; d marks the D form. Peptide text beside a SMILES is read from it.

Chain of mMC4R-NanoLuc and mMC4R-HaloTag homodimer (P56450 whole entry): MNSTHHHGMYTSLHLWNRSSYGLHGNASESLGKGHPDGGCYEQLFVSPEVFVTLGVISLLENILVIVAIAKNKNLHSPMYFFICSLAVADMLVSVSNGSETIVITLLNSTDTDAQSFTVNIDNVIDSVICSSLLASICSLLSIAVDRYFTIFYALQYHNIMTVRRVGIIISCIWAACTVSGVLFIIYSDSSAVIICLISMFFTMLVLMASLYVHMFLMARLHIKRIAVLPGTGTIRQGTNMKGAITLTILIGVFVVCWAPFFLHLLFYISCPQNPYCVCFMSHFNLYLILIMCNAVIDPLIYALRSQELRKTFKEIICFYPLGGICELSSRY
Chain of mMC4R-NanoLuc and mMC4R-HaloTag homodimer (P56450 whole entry): as above

Turning to `CC(=O)N[C@@H](Cc1c[nH]cn1)C(=O)N[C@H](Cc1ccccc1)C(=O)N[C@@H](CCCNC(=N)N)C(=O)N[C@@H](Cc1c[nH]c2ccccc12)C(=O)NCCCOCCOCCOCCCNC(=O)COCC(=O)N[C@@H](Cc1c[nH]cn1)C(=O)N[C@H](Cc1ccccc1)C(=O)N[C@@H](CCCNC(=N)N)C(=O)N[C@@H](Cc1c[nH]c2ccccc12)C(N)=O` [CJL-1-87], in series [1], the “reduction in BRET signal compared to basal signal” value (“reduction in BRET signal” for short) was about 15%.

Consider α-MSH, for which, in series [1], the “change in BRET signal (in words)” value is “dose dependent decrease in BRET signal” and the “reduction in BRET signal” value stood at 15%.

With `N=C(N)NCCC[C@H](NC(=O)[C@@H](Cc1ccccc1)NC(=O)[C@H](Cc1c[nH]cn1)NC(=O)CNC(=O)[C@@H]1CCCN1C(=O)CNC(=O)[C@@H]1CCCN1C(=O)CNC(=O)[C@@H]1CCCN1C(=O)CNC(=O)[C@@H]1CCCN1C(=O)CNC(=O)[C@@H]1CCCN1C(=O)CNC(=O)[C@@H]1CCCN1)C(=O)N[C@@H](Cc1c[nH]c2ccccc12)C(N)=O` [CJL-1-41, (Pro-Gly)6-His-DPhe-Arg-Trp-NH2] (H-PGPGPGPGPGPGH[dF]RW-NH2; N-terminus assumed), the EC50 in series [2] was found to be 0.0011 ± 7e-05 µM; in series [3] it was 1.5 ± 0.5 µM.

Turning to Ac-His-DPhe-Arg-Trp-NH2 [CJL-1-14], in series [1], the “change in BRET signal (in words)” value is recorded as “dose dependent decrease in BRET signal” and the “reduction in BRET signal” value is reported as 15%.

With `CC(=O)N[C@@H](Cc1cnc[nH]1)C(=O)N[C@H](Cc1ccc2ccccc2c1)C(=O)N[C@@H](CCCNC(=N)N)C(=O)N[C@@H](Cc1c[nH]c2ccccc12)C(=O)NCCCOCCOCCOCCCNC(=O)COCC(=O)N[C@@H](Cc1cnc[nH]1)C(=O)N[C@H](Cc1ccccc1)C(=O)N[C@@H](CCCNC(=N)N)C(=O)N[C@@H](Cc1c[nH]c2ccccc12)C(N)=O` [CJL-1-124, Ac-His-DNal(2′)-Arg-Trp-(PEDG20)-His-DPhe-Arg-Trp-NH2], the “cAMP agonist potency (in words)” value in series [4] is recorded as “single digit nanomolar agonists”. For the same molecule, in series [5], the adverse effects entry is reported as “strong adverse effects”. Moreover, the “adverse reactions / toxicity” value in series [6] is recorded as “some signs of adverse reactions observed at higher 5 nmol dose; also recorded: Some toxicity was observed”; in series [7], “some signs of toxicity were observed; also recorded: Some toxicity was observed”. The toxicity entry in series [8] is on record as “some signs of toxicity were observed; also recorded: Some toxicity was observed”. Besides, the “reduction in BRET signal” value in series [1] is listed as about 8%.

Turning to `CC(=O)N[C@@H](Cc1c[nH]cn1)C(=O)N[C@H](Cc1ccccc1)C(=O)N[C@@H](CCCNC(=N)N)C(=O)N[C@@H](Cc1c[nH]c2ccccc12)C(=O)NCCCOCCOCCOCCCNC(=O)COCC(=O)NCCCOCCOCCOCCCNC(=O)COCC(=O)N[C@@H](Cc1c[nH]cn1)C(=O)N[C@H](Cc1ccccc1)C(=O)N[C@@H](CCCNC(=N)N)C(=O)N[C@@H](Cc1c[nH]c2ccccc12)C(N)=O` [CJL-5-72, Ac-His-DPhe-Arg-Trp-(PEDG20)-(PEDG20)-His-DPhe- Arg-Trp-NH2], the EC50 was 0.0012 ± 0.0003 µM in series [2] and 0.28 ± 0.04 µM in series [3].

As to `CC(=O)N[C@@H](Cc1c[nH]cn1)C(=O)N[C@H](Cc1ccccc1)C(=O)N[C@@H](CCCNC(=N)N)C(=O)N[C@@H](Cc1c[nH]c2ccccc12)C(=O)N1CCC[C@H]1C(=O)NCC(=O)N1CCC[C@H]1C(=O)NCC(=O)N1CCC[C@H]1C(=O)NCC(=O)N1CCC[C@H]1C(=O)NCC(=O)N1CCC[C@H]1C(=O)NCC(=O)N1CCC[C@H]1C(=O)NCC(N)=O` [CJL5-35-1, Ac-His-DPhe-Arg-Trp-(Pro-Gly)6-NH2] (Ac-H[dF]RWPGPGPGPGPGPG-NH2), the values for the EC50 in series [2] and in series [3] were 0.0055 ± 0.0007 µM and 1.6 ± 0.6 µM, respectively.

On to `CC(=O)N[C@@H](Cc1c[nH]cn1)C(=O)N[C@H](Cc1ccccc1)C(=O)N[C@@H](CCCNC(=N)N)C(=O)N[C@@H](Cc1c[nH]c2ccccc12)C(=O)N1CCC[C@H]1C(=O)NCC(=O)N1CCC[C@H]1C(=O)NCC(=O)N1CCC[C@H]1C(=O)NCC(=O)N1CCC[C@H]1C(=O)NCC(=O)N1CCC[C@H]1C(=O)NCC(=O)N1CCC[C@H]1C(=O)NCC(=O)N[C@@H](Cc1c[nH]cn1)C(=O)N[C@H](Cc1ccccc1)C(=O)N[C@@H](CCCNC(=N)N)C(=O)N[C@@H](Cc1c[nH]c2ccccc12)C(N)=O` [CJL-1-31, Ac-His-DPhe-Arg-Trp-(Pro-Gly)6-His-DPhe-Arg-Trp-NH2] (Ac-H[dF]RWPGPGPGPGPGPGH[dF]RW-NH2), for which the EC50 in series [2] came out at 0.00095 ± 8e-05 µM; in series [3], 1.9 ± 0.6 µM.

Regarding “Ac-His-DNal(2′)-Arg-Trp-(PEDG20)-(PEDG20)-His-DPhe-Arg-Trp-NH2 [CJL-5-74, MUmBL; linker assigned from order of b161-b164 and b248]”, the “cAMP agonist potency (in words)” value in series [4] is “single digit nanomolar agonists”.

Usually EC50 stands for the midpoint of the concentration-response curve. Low values mean greater potency, high ones weaker potency.
